Tests used:
c-kit kinase domain = target: T1, c-kit kinase domain (Homo sapiens, UniProt P10721); test: c-kit kinase activity biochemical assay (AlphaScreen PY20 or 33P radiolabeled ATP detection); details: as measured by at least one of AlphaScreen or 33P ATP assay; ATP 10 μM in the AlphaScreen assay; read-out: IC50, inhibition of c-kit kinase activity
T1 construct: C-Kit kinase domain (starting amino acid M551, ending amino acid K949); made in house; host or cells: E. coli
Text: Compounds 1-1, 1-2, 1-3, and 1-4 of Table 1 were similarly assayed using a ^33P radiolabeled ATP for detection (Upstate USA, Charlottesville, Va.).

[1] = tested on: M-07e cell line stimulated by SCF; test: M-07e SCF-stimulated cell proliferation (CellTiter-Glo); format: cell-based; details: 72 h, 100 ng/ml SCF, three days, luminescence (ATP content), read-out: IC50, growth of SCF stimulated M-07e cells
Text: As one example, M-07e cell line (DSMZ catalog #ACC 104) is stimulated by SCF, which binds and activates c-kit tyrosine kinase receptor.

[2] = tested on: cells with activating c-kit mutations in the catalytic region; details: Ma et al., 2002, Blood 99:1741-1744; cited from earlier work

T1 sequence (P10721 552-948 limits assumed): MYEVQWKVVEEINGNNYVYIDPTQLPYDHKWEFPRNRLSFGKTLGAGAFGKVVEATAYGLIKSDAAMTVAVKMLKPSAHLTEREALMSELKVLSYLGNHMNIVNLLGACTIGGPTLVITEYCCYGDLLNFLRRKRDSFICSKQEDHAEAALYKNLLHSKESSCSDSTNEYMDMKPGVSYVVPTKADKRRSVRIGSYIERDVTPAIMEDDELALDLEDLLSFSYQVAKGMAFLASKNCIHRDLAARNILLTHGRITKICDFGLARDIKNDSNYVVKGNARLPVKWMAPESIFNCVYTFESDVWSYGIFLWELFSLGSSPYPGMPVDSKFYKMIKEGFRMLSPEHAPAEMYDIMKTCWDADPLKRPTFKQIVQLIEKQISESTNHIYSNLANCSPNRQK

| Compound | IC50 (c-kit kinase domain) | IC50 [1] | inhibition of cells with c-kit mutations in the catalytic region [2] |
| --- | --- | --- | --- |
| Fc1ccc(CNc2ccc(Cc3c[nH]c4ncccc34)cn2)cc1 [Compound 1-3, (4-fluoro-benzyl)-[5-(1H-pyrrolo[2,3-b]pyridin-3-ylmethyl)-pyridin-2-yl]-amine] | < 1000 nM | – | – |
| Cc1ccc(CNc2ccc(Cc3c[nH]c4ncccc34)cn2)cc1 [Compound 1-4, (4-methyl-benzyl)-[5-(1H-pyrrolo[2,3-b]pyridin-3-ylmethyl)-pyridin-2-yl]-amine] | < 1000 nM | – | – |
| Clc1ccc(CNc2ccc(Cc3c[nH]c4ncccc34)cn2)cc1 [Compound 1-2, (4-chloro-benzyl)-[5-(1H-pyrrolo[2,3-b]pyridin-3-ylmethyl)-pyridin-2-yl]-amine] | < 1000 nM | < 1000 nM | – |
| Cc1ccc(NC(=O)c2ccc(CN3CCN(C)CC3)cc2)cc1Nc1nccc(-c2cccnc2)n1 [ST1571] | – | – | did not inhibit |

From patent publication US20060058339A1, “Compounds modulating c-kit activity and uses therefor” (priority 2004, published 2006)
